The values that follow come from paper PMC8286840, “Identifying SARS-CoV-2 antiviral compounds by screening for small molecule inhibitors of Nsp3 papain-like protease” (Biochemical Journal, 2021).

Where a name gives a salt, the structure may show the parent alone. Read-outs that look alike come from different tables or passages of the source.

For assay [1], the target named is T1, SARS-CoV-2 PLpro (nsp3 1564–1878) (Severe acute respiratory syndrome coronavirus 2, UniProt P0DTD1). Nature of the assay: biochemical. The arrangement: FRET-quenched peptide (Pro3) cleavage by PLpro, 10 min pre-incubation, slope over 20 min, normalised to no-compound control. Conditions: read-out: % of control remaining.
In assay [2] the target is T1, SARS-CoV-2 PLpro (nsp3 1564–1878). Nature of the assay: biochemical. The arrangement: FRET-quenched peptide (Pro3) cleavage by PLpro, 10 min pre-incubation, slope over 20 min, normalised to no-compound control. Conditions: read-out: % of control remaining. The source holds these as a separate data set.

In the case of `COc1ccc([C@@H]2CC(=O)c3c(O)cc(O[C@@H]4O[C@H](CO[C@@H]5O[C@@H](C)[C@H](O)[C@@H](O)[C@H]5O)[C@@H](O)[C@H](O)[C@H]4O)cc3O2)cc1OC` [Methyl-Hesperidin], the remaining activity at 3.75 µM in assay [1] (Well no.=4864, high concentration screen) is 99.3%. Further, the remaining activity at 1.25 µM in assay [2] (Well no.=4864, low concentration screen) is 98.4%.

For `CC[N+](C)(CC)CCOC(=O)C(O)(c1ccccc1)c1ccccc1` [Methylbenactyzium Bromide], the remaining activity at 3.75 µM in assay [1] (Well no.=7773, high concentration screen) worked out at 94.7%. For the same compound, the remaining activity at 1.25 µM in assay [2] (Well no.=7773, low concentration screen) was determined as 101%.

Regarding `CNC(=O)OCC[N+](C)(C)C` [Methylcarbamylcholine chloride], the remaining activity at 3.75 µM in assay [1] (Well no.=1135, high concentration screen) was found to be 96.5%. Further, in assay [2] (Well no.=1135, low concentration screen), the remaining activity at 1.25 µM stood at 95.1%.

`C[C@](N)(Cc1ccc(O)c(O)c1)C(=O)O` [Methyldopa]: the remaining activity at 3.75 µM in assay [1] (Well no.=1955, high concentration screen) was found to be 92.5%. Further, the remaining activity at 1.25 µM in assay [2] (Well no.=1955, low concentration screen) came to 92.2%.

Regarding `CC[C@@H](CO)NC(=O)[C@@H]1C=C2c3cccc4[nH]cc(c34)C[C@H]2N(C)C1` [Methylergonovine maleate], the remaining activity at 3.75 µM in assay [1] (Well no.=1114, high concentration screen) was 90.6%; in assay [1] (Well no.=3250, high concentration screen), 98%. Further, the remaining activity at 1.25 µM in assay [2] (Well no.=1114, low concentration screen) is 94.9%; in assay [2] (Well no.=3250, low concentration screen), 98.4%.

With `CC(C(=O)O)C(=O)O` [Methylmalonate], the remaining activity at 3.75 µM in assay [1] was 95.5%. Moreover, in assay [2], the remaining activity at 1.25 µM was found to be 100%.

With `C[N@+]1(CC2CC2)CC[C@]23c4c5ccc(O)c4O[C@H]2C(=O)CC[C@@]3(O)[C@H]1C5` [Methylnaltrexone (Bromide)], in assay [1] (Well no.=8091, high concentration screen), the remaining activity at 3.75 µM was found to be 102%. Moreover, the remaining activity at 1.25 µM in assay [2] (Well no.=8091, low concentration screen) came to 97.4%.

Turning to `C[C@H]1C[C@@H]2[C@H]([C@@H](O)C[C@@]3(C)[C@H]2CC[C@]3(O)C(=O)CO)[C@@]2(C)C=CC(=O)C=C12` [Methylprednisolone], the remaining activity at 3.75 µM in assay [1] (Well no.=1957, high concentration screen) was 99.7%; in assay [1] (Well no.=6179, high concentration screen), 95.1%. The remaining activity at 1.25 µM came out at 100% in assay [2] (Well no.=1957, low concentration screen) and 95.4% in assay [2] (Well no.=6179, low concentration screen).

On to `Cc1cc(=O)[nH]c(=S)[nH]1` [Methylthiouracil], for which the remaining activity at 3.75 µM in assay [1] (Well no.=4973, high concentration screen) was 98.5%; in assay [1] (Well no.=6148, high concentration screen) it was 102%. The remaining activity at 1.25 µM in assay [2] (Well no.=4973, low concentration screen) was 99.9%; in assay [2] (Well no.=6148, low concentration screen) it was 98.5%.

As for `CC[C@@H](CO)NC(=O)[C@@H]1C=C2c3cccc4c3c(cn4C)C[C@H]2N(C)C1` [Methysergide maleate], the remaining activity at 3.75 µM in assay [1] (Well no.=2284, high concentration screen) was 90.3%. In addition, the remaining activity at 1.25 µM in assay [2] (Well no.=1087, low concentration screen) worked out at 94.2%; in assay [2] (Well no.=2284, low concentration screen), 94.8%.

Consider `COC1=CC(=O)O[C@@H](/C=C/c2ccc3c(c2)OCO3)C1` [Methysticin], for which the remaining activity at 3.75 µM in assay [1] (Well no.=3565, high concentration screen) was determined as 108%. Also, in assay [2] (Well no.=3565, low concentration screen), the remaining activity at 1.25 µM was found to be 105%.

For the compound `CCN(CC)CCNC(=O)c1cc(Cl)c(N)cc1OC` [Metoclopramide (hydrochloride hydrate)], the remaining activity at 3.75 µM in assay [1] (Well no.=7435, high concentration screen) amounted to 109%. Further, in assay [2] (Well no.=7435, low concentration screen), the remaining activity at 1.25 µM came to 106%.

`CCN(CC)CCNC(=O)c1cc(Cl)c(N)cc1OC` [Metoclopramide hydrochloride]: the remaining activity at 3.75 µM in assay [1] (Well no.=966, high concentration screen) was 103%. Also, in assay [2] (Well no.=966, low concentration screen), the remaining activity at 1.25 µM was found to be 100%.

For the compound `CCN(CC)CCNC(=O)c1cc(Cl)c(N)cc1OC` [Metoclopramide], the remaining activity at 3.75 µM in assay [1] (Well no.=1696, high concentration screen) stood at 102%; in assay [1] (Well no.=6425, high concentration screen), 95%. In addition, the remaining activity at 1.25 µM in assay [2] (Well no.=1696, low concentration screen) turned out to be 101%; in assay [2] (Well no.=6425, low concentration screen) it was 99.2%.

With `Cc1ccccc1N1C(=O)c2cc(S(N)(=O)=O)c(Cl)cc2NC1C` (centres unmarked) [Metolazone], the remaining activity at 3.75 µM was determined as 95.6% in assay [1] (Well no.=943, high concentration screen) and 90.4% in assay [1] (Well no.=8212, high concentration screen). Moreover, the remaining activity at 1.25 µM in assay [2] (Well no.=943, low concentration screen) stood at 102%; in assay [2] (Well no.=8212, low concentration screen), 94.6%.

On to `COCCc1ccc(OCC(O)CNC(C)C)cc1` (centres unmarked) [Metoprolol (Succinate)], for which the remaining activity at 3.75 µM in assay [1] (Well no.=7475, high concentration screen) is 95.9%. Also, the remaining activity at 1.25 µM in assay [2] (Well no.=7475, low concentration screen) was 94.3%.

As to `COCCc1ccc(OCC(O)CNC(C)C)cc1` (centres unmarked) [Metoprolol], the remaining activity at 3.75 µM in assay [1] (Well no.=1959, high concentration screen) worked out at 102%. Moreover, the remaining activity at 1.25 µM in assay [2] (Well no.=1959, low concentration screen) was found to be 102%.

For `Cc1ccccc1/C=C/C1=NCCN1` [Metrazoline oxalate], in assay [1] (Well no.=1074, high concentration screen), the remaining activity at 3.75 µM is 89.7%. For the same compound, in assay [2] (Well no.=1074, low concentration screen), the remaining activity at 1.25 µM stood at 88.9%.

Regarding `Cc1ccccc1CNc1ncnc2c1ncn2[C@@H]1O[C@H](CO)[C@@H](O)[C@H]1O` [Metrifudil], the remaining activity at 3.75 µM in assay [1] (Well no.=851, high concentration screen) was 96.8%. For the same compound, the remaining activity at 1.25 µM in assay [2] (Well no.=851, low concentration screen) worked out at 95.7%.

Regarding `Cc1ncc([N+](=O)[O-])n1CCO` [Metronidazole], the remaining activity at 3.75 µM in assay [1] (Well no.=1963, high concentration screen) was 99.9%. Also, in assay [2] (Well no.=1963, low concentration screen), the remaining activity at 1.25 µM turned out to be 99.6%.

Consider `CC[C@H](C)C(=O)O[C@H]1CCC=C2C=C[C@H](C)[C@H](CC[C@@H]3C[C@@H](O)CC(=O)O3)[C@H]21` [Mevastatin], for which the remaining activity at 3.75 µM turned out to be 104% in assay [1] (Well no.=922, high concentration screen); 103% in assay [1] (Well no.=1618, high concentration screen); 91.3% in assay [1] (Well no.=3381, high concentration screen). Besides, the remaining activity at 1.25 µM in assay [2] (Well no.=922, low concentration screen) is 105%; in assay [2] (Well no.=1618, low concentration screen), 102%; in assay [2] (Well no.=3381, low concentration screen) it was 90.7%.

In the case of `Cc1cccc(C)c1OCC(C)N` (centres unmarked) [Mexiletene hydrochloride], the remaining activity at 3.75 µM in assay [1] (Well no.=1066, high concentration screen) is 99.6%. For the same compound, the remaining activity at 1.25 µM in assay [2] (Well no.=1066, low concentration screen) was 102%.

As for `CC1(C)S[C@@H]2[C@H](NC(=O)[C@H](NC(=O)N3CCN(S(C)(=O)=O)C3=O)c3ccccc3)C(=O)N2[C@H]1C(=O)O` [Mezlocillin (sodium)], the remaining activity at 3.75 µM in assay [1] (Well no.=7790, high concentration screen) is 102%. For the same compound, the remaining activity at 1.25 µM in assay [2] (Well no.=7790, low concentration screen) was found to be 99.7%.

Take `CN1CCN2c3ccccc3Cc3ccccc3C2C1` (centres unmarked) [Mianserin (hydrochloride)]: the remaining activity at 3.75 µM in assay [1] (Well no.=7477, high concentration screen) was determined as 96.9%. For the same compound, the remaining activity at 1.25 µM in assay [2] (Well no.=7477, low concentration screen) was 105%.

With `CN1CCN2c3ccccc3Cc3ccccc3C2C1` (centres unmarked) [Mianserin hydrochloride], the remaining activity at 3.75 µM in assay [1] (Well no.=874, high concentration screen) stood at 106%. Moreover, the remaining activity at 1.25 µM in assay [2] (Well no.=874, low concentration screen) is 107%.

Take `CN1CCN2c3ccccc3Cc3ccccc3C2C1` (centres unmarked) [Mianserin.HCl]: the remaining activity at 3.75 µM in assay [1] (Well no.=1540, high concentration screen) worked out at 101%. Also, in assay [2] (Well no.=1540, low concentration screen), the remaining activity at 1.25 µM was determined as 100%.

On to `COCC(=O)O[C@]1(CCN(C)CCCc2nc3ccccc3[nH]2)CCc2cc(F)ccc2[C@@H]1C(C)C` [Mibefradil dihydrochloride], for which the remaining activity at 3.75 µM in assay [1] (Well no.=882, high concentration screen) was determined as 91.3%. Besides, the remaining activity at 1.25 µM in assay [2] (Well no.=882, low concentration screen) was 99.7%.

Regarding `Clc1ccc(COC(Cn2ccnc2)c2ccc(Cl)cc2Cl)c(Cl)c1` (centres unmarked) [Miconazole nitrate], in assay [1] (Well no.=4666, high concentration screen), the remaining activity at 3.75 µM amounted to 103%. In addition, the remaining activity at 1.25 µM in assay [2] (Well no.=4666, low concentration screen) came out at 102%.
